The record followed here is US20040204417A1, “Novel benzothienyl or indole derivatives, preparation and use thereof as inhibitors of prenyl transferase proteins” (priority 2001, published 2004).

For assay [1], the target named is T1, protein farnesyl transferase (Bos taurus, UniProt P29702+P49355).
T1 construct: partially purified from bovine brain by ion-exchange chromatography; from tissue; host or cells: bovine brain
Kind of assay: Evaluation of the inhibition of protein farnesyl transferase (dansyl-GCVLS fluorescence). Type of assay: biochemical, bovine. The conditions noted are these: read-out: IC50 PFTase. On the procedure:
A) Evaluation of the inhibition of protein farnesyl transferase
The farnesylation of the dansylated peptide GCVLS, catalyzed with the enzyme protein farnesyl transferase, results in a change in the emission spectrum of the dansyl group, and especially an increase in the emission at 505 nm when the molecule is excited at 340 nm. When measured using the spectrofluorimeter, this emission is proportional to the activity of the enzyme (Pompliano et al., J. Am. Chem. Soc. 1992; 114: 7945-7946).
55 mM TRIS/HCl pH 7.5; 5.5 mM DTT; 5.5 mM MgCl2; 110 μM ZnCl2, 0.22% B-octyl-B D-glucopyrannoside.
Farnesyl pyrophosphate (FPP), (Sigma)
Dansylated peptide dansyl-GCVLS (Neosystem/Strasbourg, France)
The protein farnesyl transferase is partially purified from bovine brain by ion-exchange chromatography on Q-sepharose (Pharmacia) (Moores et al., J. Biol. Chem. 1991, 266: 14603-14610, Reiss et al., Cell 1990, 62: 81-88).
The reaction mixture containing 2 μM of FPP, 2 μM of dansyl GCVLS with or without (zero) the amount of enzyme giving an intensity of 100 on the spectrofluorimeter after incubation for 10 minutes at 37° C., is prepared on ice.
In an Eppendorf tube, 360 μl of reaction mixture are mixed with 40 μl of 10× concentrated test product or of solvent, and incubated for 10 minutes at 37° C. The reaction is quenched on ice and the fluorescence intensity is measured (excitation at 340 nm, 4 nm slit, emission at 505 nm, 10 nm slit). The tests are performed in duplicate. The results are expressed as a percentage of inhibition. Under these conditions, the derivatives of the present invention were identified as powerful inhibitors of protein farnesyl transferase (IC50<10 μM).
Adaptation of the method to a 96-wellformat:
The procedure is similar to that above, except that the measurements are performed in a “Black Fluorotrack 200” 96-well device (Greiner, Poitiers, France) and the readings are performed using a “Spectrametrix Gemini” 96-well fluorimeter (Molecular Devices, Sunnyvale, Calif., USA)

For another assay, the target named is T2, GGPT I (Bos taurus, UniProt P29702+Q5EAD5).
T2 construct: GGPT I is partially purified from bovine brain by ion-exchange chromatography; from tissue; host or cells: bovine brain
Kind of assay: Evaluation of the inhibition of geranyl geranyl transferase protein I (3H-GGPP incorporation into RhoA-GST). Type of assay: biochemical, bovine. The conditions noted are these: read-out: IC50 PGGTase. On the procedure:
B) Evaluation of the inhibition of geranyl geraryl transferase protein I:
55 mM TRIS/HCl pH 7.5; 5.5 mM DTT; 5.5 mM MgCl2; 110 μM ZnCl2, 0.22% N-octyl-B D-glucopyrannoside.
^3H-geranylgeranyl pyrophosphate (GGPP), 66 μM, 15 CI/mmol, (Isotopchim)
Rho-GST recombinant protein
GGPT I is partially purified from bovine brain by ion-exchange chromatography on Q-sepharose (Pharmacia); elution at 0.23 and 0.4 M NaCl, respectively.
The reaction mixture containing 0.2 μM of ^3H-GGPP, 1 μM of RhoA-GST with or without (zero) 5 μl of GGPT/test, is prepared on ice.
In an Eppendorf tube, 45 μl of reaction mixture are mixed with 5 μl of 10× concentrated test product or of solvent, and incubated for 45 minutes at 37° C. A 45 μl aliquot is placed on a phosphocellulose P81 filter (Whatman, Maidstone, UK) numbered, washed with 50% ethanol, phosphoric acid (0.5%) and counted by scintillation.
The tests are performed in duplicate. The results are expressed as a percentage of inhibition.
Adaptation of the method to a 96-wellformat
The procedure is similar to that above, except that the measurements are performed in 96-well plates (Nunc, France) and the reactions are then passed through a 96-well “Unifilter” (Whatman, Maidstone, UK) containing a phosphocellulose P81 buffer using a “Filtermate 196” system (Packard, France).
After washing with 50% ethanol and phosphoric acid (0.5%), the filters are counted by scintillation on a “Packard Topcount” instrument.
The tests are performed in triplicate. The results are expressed as a percentage of inhibition.

Molecules are shown by their SMILES. pIC50: −log10 of the molar value.

One may read the pIC50 as −log10 of the IC50, conventionally taken in molar units. Take `N#Cc1ccc(Cn2cncc2CN(C(=O)Cc2ccccc2)c2ccc3sc(C(=O)N4CCSCC4)cc3c2)cc1` [Example 100, N-[3-(4-Cyanobenzyl)-3H-imidazol-4-ylmethyl]-N-[2-(thiomorpholine-4-carbonyl)benzo[b]thiophen-5-yl]-2-phenylacetamide]: the pIC50 in assay [1] is 8.22.

For the compound `COC(=O)[C@H](CCSC)NC(=O)c1cc2cc(N(Cc3cncn3Cc3ccc(C#N)cc3)S(=O)(=O)c3ccccc3)ccc2s1` [Example 40], in assay [1], the pIC50 is 8.70.

Take `CCCC(=O)N(Cc1cncn1Cc1ccc(C#N)cc1)c1ccc2sc(C(=O)N3CCSCC3)cc2c1` [Example 92, N-[3-(4-Cyanobenzyl)-3H-imidazol-4-ylmethyl]-N-[2-(thiomorpholine-4-carbonyl)benzo[b]thiophen-5-yl]butyramide]: the pIC50 in assay [1] was 8.70.

With `N#Cc1ccc(Cn2cncc2CN(c2ccc3sc(C(=O)NCc4cccs4)cc3c2)S(=O)(=O)c2ccccc2)cc1` [Example 46, N-(Thiophen-2-ylmethyl)-5-{benzenesulfonyl-[3-(4-cyanobenzyl)-3H-imidazol-4-ylmethyl]amino}benzo[b]thiophene-2-carboxamide], the pIC50 in assay [1] was 9.00.

On to `CCCCN(Cc1cncn1Cc1ccc(C#N)cc1)c1ccc2sc(C(=O)N3CCSCC3)cc2c1` [Example 113, 4-[5-({Butyl[2-(thiomorpholine-4-carbonyl)benzo[b]thiophen-5-yl]amino}methyl)imidazol-1-ylmethyl]benzonitrile], for which the pIC50 in assay [1] was 8.10.

Take `N#Cc1ccc(Cn2cncc2CN(C(=O)C2CCCCC2)c2ccc3sc(C(=O)N4CCSCC4)cc3c2)cc1` [Example 101, N-[3-(4-Cyanobenzyl)-3H-imidazol-4-ylmethyl]-N-[2-(thiomorpholine-4-carbonyl)benzo[b]thiophen-5-yl]cyclohexanecarboxamide]: the pIC50 in assay [1] is 8.30.

Turning to `CSCC[C@H](NC(=O)c1cc2c(N(Cc3cncn3Cc3ccc(C#N)cc3)S(=O)(=O)c3ccccc3)cccc2s1)C(=O)O` [Example 30, (2S)-2-[(4-{benzenesulfonyl-[3-(4-cyanobenzyl)-3H-imidazol-4-ylmethyl]amino}benzo[b]thiophene-2-carbonyl)amino]-4-(methylsulfanyl)butyric acid], in assay [1], the pIC50 is 8.22.

Consider `N#Cc1ccc(Cn2cncc2CN(C(=O)c2ccccc2)c2ccc3[nH]c(C(=O)N4CCSCC4)c(-c4ccccc4)c3c2)cc1` [Example 165, N-[3-(4-Cyanobenzyl)-3H-imidazol-4-ylmethyl]-N-[3-phenyl-2-(thiomorpholine-4-carbonyl)-1H-indol-5-yl]benzamide], for which the pIC50 in assay [1] is 8.00; at GGPT I, 7.22.

In the case of `CC(C)C[C@H](NC(=O)c1cc2cc(N(Cc3cncn3Cc3ccc(C#N)cc3)S(=O)(=O)c3ccccc3)ccc2s1)C(=O)O` [Example 33, (2S)-2-[(5-{benzenesulfonyl-[3-(4-cyanobenzyl)-3H-imidazol-4-ylmethyl]amino}benzo[b]thiophene-2-carbonyl)amino]-4-methylpentanoic acid], the pIC50 is 8.22 in assay [1] and 7.15 on GGPT I.

On to `CCOC(=O)c1cc2cc(NCc3cncn3Cc3ccc(C#N)cc3)ccc2s1` [Example 34, Ethyl 5-{[3-(4-cyanobenzyl)-3H-imidazol-4-ylmethyl]amino}benzo[b]thiophene-2-carboxylate], for which, in assay [1], the pIC50 was 8.00.

In the case of `N#Cc1ccc(Cn2cncc2CN(c2ccc3sc(C(=O)NC4CCCC4)cc3c2)S(=O)(=O)c2ccccc2)cc1` [Example 55, N-Cyclopentyl-5-{benzenesulfonyl-[3-(4-cyanobenzyl)-3H-imidazol-4-ylmethyl]amino}benzo[b]thiophene-2-carboxamide], the pIC50 in assay [1] is 8.52.

Consider `N#Cc1ccc(Cn2cncc2CN(C(=O)c2cccs2)c2ccc3sc(C(=O)N4CCSCC4)cc3c2)cc1` [Example 91, N-[3-(4-Cyanobenzyl)-3H-imidazol-4-ylmethyl]-N-[2-(thiomorpholine-4-carbonyl)benzo[b]thiophen-5-yl]thiophene-2-carboxamide], for which the pIC50 in assay [1] is 8.70.

Consider `N#Cc1ccc(Cn2cncc2CN(C(=O)c2cccc(F)c2)c2ccc3sc(C(=O)N4CCSCC4)cc3c2)cc1` [Example 97, N-[3-(4-Cyanobenzyl)-3H-imidazol-4-ylmethyl]-N-[2-(thiomorpholine-4-carbonyl)benzo[b]thiophen-5-yl]-3-fluorobenzamide], for which, in assay [1], the pIC50 was 9.00.

For the compound `N#Cc1ccc(Cn2cncc2CN(C(=O)c2ccccc2)c2ccc3[nH]c(C(=O)N4CCCCC4)c(-c4ccccc4)c3c2)cc1` [Example 164, N-[3-(4-Cyanobenzyl)-3H-imidazol-4-ylmethyl]-N-[3-phenyl-2-(piperidine-1-carbonyl)-1H-indol-5-yl]benzamide], the pIC50 in assay [1] was 8.10; on GGPT I, 7.70.

`CCCCNC(=O)c1cc2cc(N(Cc3cncn3Cc3ccc(C#N)cc3)S(=O)(=O)c3ccccc3)ccc2s1` [Example 57, N-Butyl-5-{benzenesulfonyl-[3-(4-cyanobenzyl)-3H-imidazol-4-ylmethyl]amino}benzo[b]thiophene-2-carboxamide]: the pIC50 in assay [1] was 8.52.

On to `N#Cc1ccc(Cn2cncc2CN(C(=O)C2CCCCC2)c2ccc3[nH]c(C(=O)N4CCCCC4)c(-c4ccccc4)c3c2)cc1` [Example 167, Cyclohexanecarboxylic-[3-(4-cyanobenzyl)-3H-imidazol-4-ylmethyl]-[3-phenyl-2-(piperidine-1-carbonyl)-1H-indol-5-yl]amide acid], for which the pIC50 was 6.40 in assay [1] and 8.15 at GGPT I.

As for `CC(C)C[C@H](NC(=O)c1cc2c(NCc3cncn3Cc3ccc(C#N)cc3)cccc2s1)C(=O)O` [Example 28, (2S)-2-[(4-{[3-(4-cyanobenzyl)-3H-imidazol-4-ylmethyl]amino}benzo[b]thiophene-2-carbonyl)amino]-4-methylpentanoic acid], the pIC50 is 8.40 in assay [1] and 8.00 at GGPT I.
